# Measurements published in patent US10881110B2, “Herbicidal compositions comprising isoxazolo[5,4-b]pyridines” (BASF SE, priority 2014, dated 2021).
# Assays:
# Experiment in all cases: greenhouse post-emergence herbicidal test
# [1] = test system: ABUTH; assay type: in vivo, Abutilon theophrast; parameters: key to herbicidal activity against ABUTH found: rating on a scale from 0 to 100; conditions: post emergence
# Protocol: (§1) The culture containers used were plastic pots containing medium loamy sand with approximately 4.6% of humus and 69.9% sand as substrate. The seeds of the test plants were sown separately for each species.
# (§2) For the post-emergence treatment, the test plants were grown to a plant height of from 1 to 15 cm, depending on the plant habit, and only then treated with the active compounds which had been suspended or emulsified in water. To this end, the test plants were either sown directly, and grown in the same containers, or they were first grown separately as seedlings and transplanted into the test containers a few days prior to treatment.
# (§3) Depending on the species, the plants were kept at 10-25° C. and 20-35° C., respectively.
# (§4) The test period extended over 1 to 3 weeks. During this time, the plants were tended and their response to the individual treatments was evaluated 20 days after treatment except mentioned otherwise.
# (§5) Evaluation was carried out using a scale from 0 to 100. 100 means no emergence of the plants, or complete destruction of at least the above-ground parts, and 0 means no damage or normal course of growth.
# (§6) The respective stated components A and B, and, if appropriate, C, were formulated as a 10% by weight strength emulsion concentrate and, with addition of the amount of solvent system, introduced into the spray liquor used for applying the active compound. In the examples, the solvent used was water.
# (§7) In the examples below, using the method of S. R. Colby (1967) “Calculating synergistic and antagonistic responses of herbicide combinations”, Weeds 15, p. 22 ff., the value E, which is expected if the activity of the individual active compounds is only additive, was calculated. E=X+Y−(X·Y/100)
# [2] = test system: ERICA; assay type: in vivo, Conyza canadensis; parameters: key to herbicidal activity against ERICA found: rating on a scale from 0 to 100; conditions: post emergence
# Protocol: as §1, §2, §3, §4, §5, §6, §7
# [3] = test system: GALAP; assay type: in vivo, Galium aparine; parameters: key to herbicidal activity against GALAP found: rating on a scale from 0 to 100; conditions: post emergence
# Protocol: as §1, §2, §3, §4, §5, §6, §7
# [4] = test system: MATCH; assay type: in vivo, Matricaria recutita; parameters: key to herbicidal activity against MATCH found: rating on a scale from 0 to 100; conditions: post emergence
# Protocol: as §1, §2, §3, §4, §5, §6, §7
# [5] = test system: POLCO; assay type: in vivo, Polygonum convolvulus; parameters: key to herbicidal activity against POLCO found: rating on a scale from 0 to 100; conditions: post emergence
# Protocol: as §1, §2, §3, §4, §5, §6, §7
# [6] = test system: GERDI; assay type: in vivo, Geranium dissectum; conditions: Geranium dissectum, post-emergence, 480 h, post emergence, read-out: herbicidal activity against GERDI found
# Protocol: as §1, §2, §3, §4, §5, §6, §7
# [7] = test system: VIOAR; assay type: in vivo, Viola arvensis; parameters: key to herbicidal activity against VIOAR found / herbicidal activity against VIOLA found: rating on a scale from 0 to 100; conditions: post emergence
# Protocol: as §1, §2, §3, §4, §5, §6, §7
# [8] = test system: ALOMY; assay type: in vivo, Alopecurus myosuroides; parameters: key to herbicidal activity against ALOMY found: rating on a scale from 0 to 100; conditions: post emergence
# Protocol: as §1, §2, §3, §4, §5, §6, §7
# [9] = test system: APESV; assay type: in vivo, Apera spica-venti; parameters: key to herbicidal activity against APESV found: rating on a scale from 0 to 100; conditions: post emergence; applied alone at 0.5 g/ha a.i.
# Protocol: as §1, §2, §3, §4, §5, §6, §7
# [10] = application rate a.i.: I.1 20.8 g/ha, B.107 (topramezone) 6 g/ha, alone or as mixture (composition 1.107)
# [11] = application rate a.i.: I.1 62.5 g/ha, B.107 (topramezone) 6 g/ha, alone or as mixture (composition 1.107)
# [12] = a.i. g/ha: I.1 31.25, B.92 0.5, 20 days after treatment
# [13] = g/ha a.i.: I.1 125, B.63 0.5, mixture 125+0.5
# [14] = g/ha a.i.: I.1 125, B.63 1, mixture 125+1
# [15] = applied alone at 31.25 g/ha a.i.
# [16] = applied alone at 62.5 g/ha a.i.
smiles,measurement,setting,value
"Cc1c(C(=O)c2cnn(C)c2O)ccc(S(C)(=O)=O)c1C1=NOCC1 [B.107, topramezone]",herbicidal activity against ABUTH found,[1]; [10],85
same,herbicidal activity against ABUTH found,[1]; [11],85
same,herbicidal activity against ERICA found,[2]; [10],65
same,herbicidal activity against ERICA found,[2]; [11],65
same,herbicidal activity against GALAP found,[3]; [11],70
same,herbicidal activity against MATCH found,[4]; [10],70
same,herbicidal activity against POLCO found,[5]; [11],35
"CC(C)N(C)S(=O)(=O)NC(=O)c1cc(-n2c(=O)cc(C(F)(F)F)n(C)c2=O)c(F)cc1Cl [B.92, saflufenacil]",herbicidal activity against ERICA found,[2]; [12],80%
same,herbicidal activity against GALAP found,[3]; [12],80%
CCCCCCCC/C=C\CCCCCCCC(=O)OC [methyl oleate],pest or weed control at 6 g/ha,"[1]; Abutilon theophrasti, post-emergence, 480 h, methyl oleate 6 g/ha a.i., read-out: herbicidal activity against ABUTH found",0%
same,pest or weed control at 12 g/ha,"[1]; Abutilon theophrasti, post-emergence, 480 h, methyl oleate 12 g/ha a.i., read-out: herbicidal activity against ABUTH found",0%
same,pest or weed control at 3 g/ha,"[2]; Erigeron canadensis, post-emergence, 480 h, methyl oleate 3 g/ha a.i., read-out: herbicidal activity against ERICA found",0%
same,pest or weed control at 6 g/ha,"[2]; Erigeron canadensis, post-emergence, 480 h, methyl oleate 6 g/ha a.i., read-out: herbicidal activity against ERICA found",0%
same,pest or weed control at 12 g/ha,"[2]; Erigeron canadensis, post-emergence, 480 h, methyl oleate 12 g/ha a.i., read-out: herbicidal activity against ERICA found",0%
same,pest or weed control at 12 g/ha,"[3]; Galium aparine, post-emergence, 480 h, methyl oleate 12 g/ha a.i., read-out: herbicidal activity against GALAP found",0%
same,pest or weed control at 3 g/ha,[6]; methyl oleate 3 g/ha a.i.,0%
same,pest or weed control at 6 g/ha,[6]; methyl oleate 6 g/ha a.i.,0%
same,pest or weed control at 12 g/ha,[6]; methyl oleate 12 g/ha a.i.,0%
same,pest or weed control at 3 g/ha,"[4]; Matricaria chamomilla, post-emergence, 480 h, methyl oleate 3 g/ha a.i., read-out: herbicidal activity against MATCH found",0%
same,pest or weed control at 6 g/ha,"[4]; Matricaria chamomilla, post-emergence, 480 h, methyl oleate 6 g/ha a.i., read-out: herbicidal activity against MATCH found",0%
same,pest or weed control at 12 g/ha,"[4]; Matricaria chamomilla, post-emergence, 480 h, methyl oleate 12 g/ha a.i., read-out: herbicidal activity against MATCH found",0%
same,pest or weed control at 3 g/ha,"[5]; Fallopia convolvulus, post-emergence, 480 h, methyl oleate 3 g/ha a.i., read-out: herbicidal activity against POLCO found",0%
same,pest or weed control at 6 g/ha,"[5]; Fallopia convolvulus, post-emergence, 480 h, methyl oleate 6 g/ha a.i., read-out: herbicidal activity against POLCO found",0%
same,pest or weed control at 12 g/ha,"[5]; Fallopia convolvulus, post-emergence, 480 h, methyl oleate 12 g/ha a.i., read-out: herbicidal activity against POLCO found",0%
"CCC(CC)Nc1c([N+](=O)[O-])cc(C)c(C)c1[N+](=O)[O-] [B.123, pendimethalin]",pest or weed control at 500 g/ha,"[2]; Erigeron canadensis, post-emergence, 480 h, B.123 alone 500 g/ha a.i., read-out: herbicidal activity against ERICA found",30%
same,pest or weed control at 1000 g/ha,"[2]; Erigeron canadensis, post-emergence, 480 h, B.123 alone 1000 g/ha a.i., read-out: herbicidal activity against ERICA found",60%
same,pest or weed control at 1000 g/ha,[6]; B.123 alone 1000 g/ha a.i.,75%
same,pest or weed control at 1000 g/ha,"[5]; Fallopia convolvulus, post-emergence, 480 h, B.123 alone 1000 g/ha a.i., read-out: herbicidal activity against POLCO found",65%
"CC(C)C1(C)N=C(c2ncccc2C(=O)O)NC1=O (centres unmarked) [B.35, imazapyr]",pest or weed control at 10 g/ha,"[1]; Abutilon theophrasti, post-emergence, 480 h, 10 g/ha a.i., read-out: herbicidal activity against ABUTH found",90%
same,pest or weed control at 5 g/ha,"[2]; Erigeron canadensis, post-emergence, 480 h, 5 g/ha a.i., read-out: herbicidal activity against ERICA found",75%
same,pest or weed control at 10 g/ha,[6]; 10 g/ha a.i.,95%
same,pest or weed control at 10 g/ha,"[4]; Matricaria chamomilla, post-emergence, 480 h, 10 g/ha a.i., read-out: herbicidal activity against MATCH found",55%
same,pest or weed control at 5 g/ha,"[5]; Fallopia convolvulus, post-emergence, 480 h, 5 g/ha a.i., read-out: herbicidal activity against POLCO found",95%
same,pest or weed control at 5 g/ha,"[7]; Viola arvensis, post-emergence, 5 g/ha a.i., read-out: herbicidal activity against VIOAR found",55%
"COC(=O)c1ccc(I)cc1S(=O)(=O)[N-]C(=O)Nc1nc(C)nc(OC)n1.[Na+] [B.44, iodosulfuron-methyl-sodium]",herbicidal activity against ALOMY found,[8]; 1 g/ha a.i.,20
same,herbicidal activity against POLCO found,[5]; 1 g/ha a.i.,90
"CCCOCCN(C(=O)CCl)c1c(CC)cccc1CC [B.135, pretilachlor]",pest or weed control at 100 g/ha,"[1]; Abutilon theophrasti, post-emergence, 480 h, B.135 100 g/ha a.i., read-out: herbicidal activity against ABUTH found",0%
same,pest or weed control at 200 g/ha,"[1]; Abutilon theophrasti, post-emergence, 480 h, B.135 200 g/ha a.i., read-out: herbicidal activity against ABUTH found",0%
same,pest or weed control at 400 g/ha,"[1]; Abutilon theophrasti, post-emergence, 480 h, B.135 400 g/ha a.i., read-out: herbicidal activity against ABUTH found",0%
same,pest or weed control at 100 g/ha,"[2]; Erigeron canadensis, post-emergence, 480 h, B.135 100 g/ha a.i., read-out: herbicidal activity against ERICA found",0%
same,pest or weed control at 200 g/ha,"[2]; Erigeron canadensis, post-emergence, 480 h, B.135 200 g/ha a.i., read-out: herbicidal activity against ERICA found",0%
same,pest or weed control at 400 g/ha,"[2]; Erigeron canadensis, post-emergence, 480 h, B.135 400 g/ha a.i., read-out: herbicidal activity against ERICA found",20%
same,pest or weed control at 200 g/ha,"[3]; Galium aparine, post-emergence, 480 h, B.135 200 g/ha a.i., read-out: herbicidal activity against GALAP found",0%
same,pest or weed control at 100 g/ha,[6]; B.135 100 g/ha a.i.,0%
same,pest or weed control at 200 g/ha,[6]; B.135 200 g/ha a.i.,0%
same,pest or weed control at 400 g/ha,[6]; B.135 400 g/ha a.i.,0%
same,pest or weed control at 200 g/ha,"[4]; Matricaria chamomilla, post-emergence, 480 h, B.135 200 g/ha a.i., read-out: herbicidal activity against MATCH found",0%
same,pest or weed control at 400 g/ha,"[4]; Matricaria chamomilla, post-emergence, 480 h, B.135 400 g/ha a.i., read-out: herbicidal activity against MATCH found",0%
same,pest or weed control at 200 g/ha,"[5]; Fallopia convolvulus, post-emergence, 480 h, B.135 200 g/ha a.i., read-out: herbicidal activity against POLCO found",0%
"COC(=O)c1ccccc1S(=O)(=O)NC(=O)N(C)c1nc(C)nc(OC)n1 [B.63, tribenuron-methyl]",herbicidal activity against ALOMY found,[8]; [13],0
same,herbicidal activity against MATCH found,[4]; [13],30
same,herbicidal activity against POLCO found,"[5]; g/ha a.i.: I.1 31.25, B.63 1, mixture 31.25+1",30
same,herbicidal activity against POLCO found,[5]; [13],20
same,herbicidal activity against POLCO found,[5]; [14],30
same,herbicidal activity against VIOAR found,"[7]; g/ha a.i.: I.1 62.5, B.63 0.5, mixture 62.5+0.5",65
same,herbicidal activity against VIOAR found,[7]; [14],40
COc1nn(C(=O)NS(=O)(=O)c2c(C(=O)O)csc2C)c(=O)n1C [thiencarbazone],herbicidal activity against APESV found,[9],25
same,herbicidal activity against ERICA found,[2]; applied alone at 0.5 g/ha a.i.,85
"O=C(O)COc1ccc(Cl)cc1Cl [B.140, 2,4-D]",herbicidal activity against ABUTH found,[1]; [15],35
same,herbicidal activity against ABUTH found,[1]; [16],85
same,herbicidal activity against ALOMY found,[8]; [15],0
same,herbicidal activity against ALOMY found,[8]; [16],0
same,herbicidal activity against ERICA found,[2]; [15],70
same,herbicidal activity against ERICA found,[2]; [16],80
same,herbicidal activity against GALAP found,[3]; [15],0
same,herbicidal activity against GALAP found,[3]; [16],0
same,herbicidal activity against MATCH found,[4]; [15],0
same,herbicidal activity against POLCO found,[5]; [15],65
same,herbicidal activity against POLCO found,[5]; [16],75
same,herbicidal activity against VIOAR found,[7]; [15],60
same,herbicidal activity against VIOAR found,[7]; [16],65
